Columns and labels:
[1] = test system: E. coli S30 extract (bacterial protein synthesis); assay: E. coli S30 extract coupled transcription-translation luciferase assay (inhibition of bacterial protein synthesis); type: biochemical; settings: class by IC50 or % inhibition @ 1 μM, read-out: S30 IC50 (μM/% inhib.)
Procedure, shortened: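 Luciferase luminescence quantified inhibition of protein synthesis relative to water controls, with no-DNA reactions giving background. Compounds in 2-fold serial dilution (8 levels) were incubated 1 hour at 37 °C with E. coli S30 extract, amino acids and pBESTluc plasmid, then chilled to stop.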

[2] = target: Rabbit Reticulocyte Lysate (eukaryotic protein synthesis); assay: Rabbit reticulocyte lysate luciferase assay (inhibition of eukaryotic protein synthesis); type: biochemical; settings: class by IC50 or % inhibition @ 1 μM, read-out: Rabbit reticulocyte IC50 (μM/% inhib.)
Procedure, shortened: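 Percent inhibition calculated against water-only controls from luminescence; background set by lysate lacking RNA. Compounds, 8-point 2-fold titration, incubated 90 minutes at 30° C with nuclease-treated rabbit reticulocyte lysate programmed with luciferase control RNA plus complete amino acids.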

A. baumannn (Ab) = assay: Broth microdilution minimum inhibitory concentration (MIC), CLSI; type: cell-based; settings: Acinetobacter baumannii, read-out: Ab + bicarb MIC
Procedure, shortened: (§1)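 Modified CLSI method: CAMHB (± bicarbonate 6.25/25 mM or 0-50% human serum), 8-point two-fold series, triplicates, 5×10^4 CFU/well.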

E. coli (Ec) = assay: as above; type: cell-based; settings: Escherichia coli, growth medium supplemented with sodium bicarbonate, read-out: E. coli + bicarb MIC
Procedure, shortened: as §1

E. faecalis (Ef) = assay: as above; type: cell-based; settings: Enterococcus faecalis, growth medium supplemented with sodium bicarbonate, read-out: Ef + bicarb MIC
Procedure, shortened: as §1

P. aeruginosa (Pa) = assay: as above; type: cell-based; settings: Pseudomonas aeruginosa, growth medium supplemented with sodium bicarbonate, read-out: Pa MIC + bicarb
Procedure, shortened: as §1

S. aureus (Sa) = assay: as above; type: cell-based; settings: Staphylococcus aureus, growth medium supplemented with sodium bicarbonate, read-out: Sa + bicarb MIC
Procedure, shortened: as §1

Row | SMILES | IC50 [1] [µM] | IC50 [2] [µM] | MIC (A. baumannn (Ab)) [µg/mL] | MIC (E. coli (Ec)) [µg/mL] | MIC (E. faecalis (Ef)) [µg/mL] | MIC (P. aeruginosa (Pa)) [µg/mL] | MIC (S. aureus (Sa)) [µg/mL]
1 | Cc1cc(-n2ccc(NC(=O)N3CCN(C(=O)[C@@](C)(N)CO)CC3)nc2=O)ccc1CCN1C[C@@H]2[C@@H](CN)[C@@H]2C1 [Compound 129] | < 0.5 | ≥ 1 | > 32 | < 8 | 8 to 32 | 8 to 32 | < 8
2 | Cc1cc(-n2ccc(NC(=O)N3CCN(C(=O)C(C)(C)N)CC3)nc2=O)ccc1CCN1CC2CC2(CN)C1 (centres unmarked) [Compound 130] | < 0.5 | ≥ 1 | 8 to 32 | < 8 | < 8 | 8 to 32 | < 8
3 | CC(C)(N)C(=O)N1CCN(C(=O)Nc2ccn(-c3ccc(CCN4CC5CC5(CN)C4)c(C(F)(F)F)c3)c(=O)n2)CC1 (centres unmarked) [Compound 131] | < 0.5 | ≥ 1 | 8 to 32 | < 8 | < 8 | > 32 | < 8
4 | COc1cc(-n2ccc(NC(=O)N3CCN(C(=O)C(C)(C)N)CC3)nc2=O)ccc1CCN1C[C@@H]2[C@@H](CN)[C@@H]2C1 [Compound 132] | < 0.5 | ≥ 1 | > 32 | < 8 | 8 to 32 | 8 to 32 | 8 to 32
5 | COc1cc(-n2ccc(NC(=O)N3CCN(C(=O)C(C)(C)N)CC3)nc2=O)ccc1CCN1CC2CC2(CN)C1 (centres unmarked) [Compound 133] | < 0.5 | ≥ 1 | > 32 | < 8 | 8 to 32 | > 32 | 8 to 32
6 | CC(N)[C@H]1[C@@H]2CN(CCc3ccc(-n4ccc(NC(=O)N5CCN(C(=O)C(C)(C)N)CC5)nc4=O)cc3)C[C@@H]21 (some centres unmarked) [Compound 134] | < 0.5 | ≥ 1 | 8 to 32 | < 8 | < 8 | 8 to 32 | < 8
7 | CCC(Cc1ccc(-n2ccc(NC(=O)N3CCN(C(=O)C(C)(C)N)CC3)nc2=O)cc1)N1C[C@@H]2[C@@H](CN)[C@@H]2C1 (some centres unmarked) [Compound 135] | < 0.5 | ≥ 1 | < 8 | < 8 | < 8 | < 8 | < 8
8 | CC(Cc1ccc(-n2ccc(NC(=O)N3CCN(C(=O)C(C)(C)N)CC3)nc2=O)cc1)N1C[C@@H]2[C@H](C1)[C@H]2C(N)=O (some centres unmarked) [Compound 136] | ≥ 1 | ≥ 1 | > 32 | > 32 | > 32 | > 32 | > 32
9 | CC(C)(N)C(=O)N1CCN(C(=O)Nc2ccn(-c3ccc(C(N)C(=O)N4C[C@@H]5[C@@H](CN)[C@@H]5C4)cc3)c(=O)n2)CC1 (some centres unmarked) [Compound 137] | 0.5 to 1 | ≥ 1 | > 32 | > 32 | > 32 | > 32 | > 32
10 | CNC[C@@H]1[C@H]2CN(C(C)Cc3ccc(-n4ccc(NC(=O)N5CCN(C(=O)C(C)(C)N)CC5)nc4=O)cc3)C[C@@H]12 (some centres unmarked) [Compound 138] | 0.5 to 1 | ≥ 1 | > 32 | < 8 | 8 to 32 | > 32 | < 8
11 | CC(Cc1ccc(-n2ccc(NC(=O)N3CCN(C(=O)C(C)(C)N)CC3)nc2=O)cc1F)N1C[C@@H]2[C@@H](CN)[C@@H]2C1 (some centres unmarked) [Compound 139] | < 0.5 | ≥ 1 | 8 to 32 | < 8 | < 8 | 8 to 32 | < 8
